Laboratory results as given in article PMC3493622 (Organic & biomolecular chemistry, 2012).
Where two headings read alike, the source gives them in different places.

Assays:
RAW 264.7 cells = experiment: SRB cytotoxicity / cell survival under nitrite assay conditions; assay type: cell-based, murine; settings: for Nitrite assay % survival: 50 μM, cell survival in comparison with vehicle-treated controls, SRB
HEK293 = experiment: Cell survival in the NFκB assay; assay type: cell-based, Human; settings: for NFκB assay % survival: 50 μM, cell survival in comparison with vehicle-treated controls
[1] = SRB cytotoxicity / cell survival under nitrite assay conditions; assay type: cell-based, murine; settings: mouse, RAW 264.7 cells
[2] = tested on: NO production (iNOS) in LPS-stimulated RAW 264.7 cells; assay type: cell-based, murine; settings: for Nitrite assay % inhibition: screening concentration 50 μM, LPS 1 μg/mL, 20 h; for nitrite inhibitory activity (in words): tested up to 50 μM
[3] = tested on: NFκB (luciferase reporter in human embryonic kidney cells 293); experiment: NFκB luciferase assay; assay type: cell-based; settings: for NFκB assay % inhibition: screening concentration 50 μM, TNFα; for NFκB inhibitory activity (in words): at 50 μM

## c1ccc(-c2cc3ccccc3[nH]2)cc1 [Compound 10aa, 2-phenyl-1H-indole]
RAW 264.7 cells
  Nitrite assay % survival: 66.7±4.0%
HEK293
  NFκB assay % survival: 79.8±5.9%

## CC(C)(C)OC(=O)n1c(-c2ccccc2)cc2ccccc21 [Compound 2f, N-Boc-2-phenylindole]
[1]
  IC50 at 20 h: 38.2 ± 5 µM

## c1ccc(-c2cc3ccccc3[nH]2)cc1 [Compound 1, 2-phenylindole]
[2]; 50 µM
  Nitrite assay % inhibition: 60.4±2.2%
RAW 264.7 cells
  Nitrite assay % survival: 87.3±3.9%
[3]; 6 h, 50 µM
  NFκB assay % inhibition: 72.3±5%
HEK293
  NFκB assay % survival: 113.1±2.8%

## C#CCn1c(-c2ccccc2)cc2ccccc21 [Compound 2d, 2-Phenyl-N-propargylindole]
[1]
  IC50 at 20 h: 46.8 ± 1.9 µM

## Cc1ccc(-c2cc3ccccc3[nH]2)cc1 [Compound 10ac, 2-p-Tolyl-1H-indole]
[2]
  nitrite inhibitory activity (in words): essentially inactive

## COc1cc(OC)cc(-c2cc3ccccc3[nH]2)c1 [Compound 10ag, 2-(3,5-Dimethoxyphenyl)-1H-indole]
[3]
  NFκB inhibitory activity (in words): inactive

## Cc1ccccc1-c1cc2cc([N+](=O)[O-])ccc2[nH]1 [Compound 10bb, 5-Nitro-2-o-toyl-1H-indole]
[2]
  Nitrite assay % inhibition: 45.9±3.0%
RAW 264.7 cells
  Nitrite assay % survival: 89.2±9.5%
[3]; 6 h
  NFκB assay % inhibition: 60.6±3.2%
HEK293
  NFκB assay % survival: 119.2±8.6%

## c1ccc(-c2nc3ccccc3[nH]2)cc1 [Compound 11, 2-phenylbenzimidazole, reference compound]
[2]; Mus musculus, RAW264.7, 20 h, read-out: Nitrite assay % inhibition
  inhibition at 50 µM: 13.8 ± 6.4%
RAW 264.7 cells; Mus musculus, RAW264.7, 20 h, read-out: Nitrite assay % survival
  viability at 50 µM: 97.7 ± 5.6%
[3]; Homo sapiens, 6 h, read-out: NFκB assay % inhibition
  inhibition at 50 µM: 73.6 ± 3.1%
[3]; Homo sapiens, 6 h, read-out: NFκB assay IC50
  IC50: 11.2 ± 0.3 µM
HEK293; Homo sapiens, HEK293, read-out: NFκB assay % survival
  viability at 50 µM: 86.2 ± 18%

## Cc1ccccc1-c1cc2ccccc2[nH]1 [Compound 10ab, 2-o-Tolyl-1H-indole]
[2]; Mus musculus, RAW264.7, read-out: IC80 concentration (nitrite inhibition)
  IC80: 9.3 µM
[1]
  IC50 at 20 h: 32.9 ± 2.5 µM
RAW 264.7 cells; at 9.3 μM (IC80 of nitrite inhibition)
  cell survival at the IC80 concentration: 94.5%
[3]
  NFκB inhibitory activity (in words): inactive

## CON=Cc1c(-c2ccccc2)[nH]c2ccccc12 [Compound 6a, 2-Phenyl-1H-indole-3-carboxaldehyde O-methyl oxime]
[1]
  IC50 at 20 h: 48 ± 5.1 µM

## N#Cc1ccc2cc(-c3ccccc3)[nH]c2c1 [Compound 10ea, 6-Carbonitrile-2-phenyl-1H-indole]
[2]
  Nitrite assay % inhibition: 45.6±2.5%
RAW 264.7 cells
  Nitrite assay % survival: 78.1±3.8%
[3]; 6 h
  NFκB assay % inhibition: 50.6±3.8%
HEK293
  NFκB assay % survival: 72.4±6.2%

## c1ccc(C2Cc3ccccc3N2)cc1 (stereo not drawn) [Compound 3, 2-phenylindoline]
[2]
  nitrite inhibitory activity (in words): essentially inactive

## Nc1ccccc1C#Cc1cc(F)cc(F)c1 [10ae′, 2-((3,5-Difluorophenyl)ethynyl)aniline]
[1]
  IC50 at 20 h: 42.9 ± 5.1 µM
